According to patent EP4483904A1, “POLYOXOMETALATES AS MEMBRANE CARRIERS” (Universität Wien, priority 2023, dated 2025):
“And” between values parts separate entries of the source, which are not always exact repeats. Identical values can stand only once. Like-named read-outs stand apart in the source and are kept apart here.

Legend:
protamine = assay: Isothermal titration calorimetry, POM into protamine; type: binding; conditions: 10 mM Mes, pH 5.5, 298.15 K
Experimental: All experiments were performed with a VP-ITC MicroCalorimeter from MicroCal, Int,. at atmospheric pressure and 298.15 K. Solutions were degassed and thermostatic prior the titration experiments in a ThermoVac accessory. A constant volume of POM ([PVW11]^4- or [SiMoW11]^4-) (10 µL per injection) was injected into the oligopeptide solution (heptaArg, protamine, polyArg or heptaLys) in 10 mM Mes, pH 5.5 to determine the apparent binding affinity of [PVW11]^4- and [SiMoW11]^4- with the oligopeptides. Dilution heats were determined by titration of the POM into buffer and subtracted from the reaction heat. The neat reaction heat was fitted with Origin 7.0 software by using the "one-set-of-sites" model to obtain the complex stability constant (Ka) and molar reaction enthalpy (ΔH°). The free energy (ΔG°) and entropy changes (ΔS°) were obtained according to the relation: ΔG° = - R TInKa = ΔH°-TΔS°.

[1] = Stability investigation by NMR spectroscopy (hydrolysis in buffer/media); type: physicochemical; conditions: for Hydrolysis/Stability pH 7.5: 10 mM Hepes or 10 mM Tris, pH 7.4; for Hydrolysis/Stability pH 7.5 / Hydrolysis/Stability pH 5.5: 107 mM NaCl; for Hydrolysis/Stability pH 5.5: 10 mM Mes
Description: POMs of the globular Keggin and planar Anderson archetype and with varying charge status from -3 to -8 (Fig. 1) were selected. To offset the known [XW12O40]^n- (X = hetero-ion) hydrolysis propensity in aqueous solution, most pronounced at neutral pH, more highly charged mixed-metal derivatives (Fig. 1,lefthand side) were also included. The latter are obtained by hydrolytic removal of one W=O^4+ unit from the Keggin structure and the subsequent incorporation of an addenda metal to fill the cavity of the monolacunary intermediate. In detail, the following POM anions were studied (as acid or sodium, potassium, or tetraalkylammonium salts), see Fig. 1: [α-P^VW^VI12O40]^3- ([PW12]^3-), [α-Si^IVW^VI12O40]^4- ([SiW12]^4-), [α-Al^IIIW^VI12O40]^5- ([AlW12]^5-), [α-P^VV^VW^VI11O40]^4- ([PVW11]^4-), [α-Si^IVMo^VIW^VI11O40]^4- ([SiMoW11]^4-), [α- HAl^IIIGe^IVW^VI11O39(H2O)]^5- ([GeAlW11]^5-), [{α-P^VW^VI11O39Zr^IV(µ-OH)(H2O)}2]^8- ([(PZrW11)2]^8-), and [Al^III(OH)6Mo^VI6O18]^3- ([AlMo6]^3-). First, their long-term (24 h and longer) stability in aqueous solution (slightly acidic and neutral) was investigated by applying the active NMR nuclei in their composition (see).

[2] = Transport experiments in CF-loaded zwitterionic EYPC vesicles (CF fluorescence, Hill analysis); type: biochemical; conditions: for cargo transport in CF-loaded vesicles (qualitative): LUVs loaded with CF, added cargo; for onset for transport activity (carrier concentration): vesicles, Fig. 4
Experimental: The dry film was rehydrated with 1 mL buffer (50 mM CF, 10 mM Hepes, pH 7.4 or 50 mM CF, 10 mM Tris, pH 7.4) for 30 min at room temperature, subjected to freeze-thaw cycles (7 times) and extrusions (15 times) through a polycarbonate membrane (pore size 100 nm). Extravesicular components were removed by size exclusion chromatography (NAP-25 column Sephadex G-25 DNA grade) with 10 mM Hepes, 107 mM NaCl, pH 7.4 or 10 mM Hepes, 107 mM NaCl, pH 7.4. Phospholipid concentration was calculated by the Stewart assay. […]
Vesicles stock solutions (5-10 µL) were diluted with the corresponding buffer in a disposable plastic cuvette and gently stirred (total volume 2000 µL, final lipid concentration 13 µM). […] Fluorescence intensities were normalized to fractional emission as: I(t) = (It −I0)/(I∞ −I0) [formula]
Where I0 = It before POM addition and […] = I∞ after lysis. For Hill analysis, It before lysis was defined as transport activity, Y, and plotted against POM concentration, c, and fitted to the Hill equation (2), to afford the activity in absence of POM, Y0, the maximal activity, Ymax, the concentration needed to achieve 50 % of maximal activity, EC50, and the Hill coefficient, n. Y = Y0 + (Ymax −Y0)/(1 + (((EC50)/(c)))^n) [formula]
In the transport measurements, where different carriers (POMs) are tested with the same cargo, the activator efficiency (E) is determined by their capacity to transport the impermeable cargo to the intravesicular region and is characterized by Ymax, its maximal activity, and EC50, the effective activator concentration. An ideal carrier reaches high Ymax at low EC50. To count both factors, the activator efficiency is defined as: E = Ymax (pEC50)/(f) [formula] were pEC50 is the negative logarithm of the EC50, and fa scaling factor, which was set to 20.6 to calibrate the highest (previously known) activation efficiency, E, as 10.
The capability of POMs to act as membrane carriers was explored first in large unilamellar vesicles (LUVs), loaded with carboxyfluorescein (CF). We selected […] representative cationic peptides, heptaarginine (heptaArg), heptalysine (heptaLys), protamine, and polyarginine (polyArg), as test cargos. Inside the LUVs, the CF dye was encapsulated at self-quenching concentrations. With a suitable carrier, heptaArg can be taken up into the vesicles, bind with entrapped CF, and shuttle back to the exterior, spreading the previously quenched CF, and thereby restoring its fluorescence (Fig. 3). In the time-resolved fluorescence experiments, to test whether a POM acts as molecular carrier, the CF emission was continuously monitored during the addition of the inorganic carrier (t = 60 s) and after injection the impermeable heptaArg (t = 120 s). At the end of the experiment (t = 600 s), the surfactant Triton X-100 was added to release all the entrapped CF and allow normalization of the intensity data (Fig. 4a).

[3] = Nutrient mixture F-12 Ham after incubation for 1 h at 37 °C
[4] = EYPC (zwitterionic), 13 µM phospholipids, 10 µM heptaLys
[5] = EYPC (zwitterionic), 13 µM phospholipids, 10 µM heptaLys, read-out: EC50
[6] = EYPC vesicles, 0.1 µM polyArg, neutral pH 7.4
[7] = EYPC vesicles, 0.1 µM polyArg, neutral pH 7.4, read-out: PolyArg EC50
[8] = EYPC vesicles, 1 µM protamine, neutral pH 7.4
[9] = EYPC vesicles, 1 µM protamine, neutral pH 7.4, read-out: Protamine EC50
[10] = EYPC vesicles, 10 µM heptaArg, neutral pH 7.4, E = Ymax(pEC50/f), f = 20.6
[11] = EYPC vesicles, 10 µM heptaArg, neutral pH 7.4, read-out: HeptaArg EC50
[12] = EYPC vesicles, 0.1 µM polyArg, acidic pH 5.5
[13] = EYPC vesicles, 1 µM Protamine, acidic pH 5.5

Row | Substance | Protamine Ka/ 10^7 (protamine) | Hydrolysis/Stability pH 7.5 [1] | Hydrolysis/Stability pH 5.5 [1] | POM anions with % for parent (active) anion based on signals integration [1, 3] | E (activation efficiency) [2, 4] | Ymax [2, 4] [%] | EC50 [2, 5] [µM] | PolyArg E (activation efficiency) [2, 6] | PolyArg Ymax [2, 6] [%] | EC50 [2, 7] [µM] | Protamine E (activation efficiency) [2, 8] | Protamine Ymax [2, 8] [%] | EC50 [2, 9] [µM] | HeptaArg E (activation efficiency) [2, 10] | EC50 [2, 11] | cargo transport in CF-loaded vesicles (qualitative) [2] | onset for transport activity (carrier concentration) [2] | further results
1 | K4[α-P^VV^VW^VI11O40]·4H2O [[PVW11]^4-] | 25 ± 9 10^7 M-1 | 20 % to [P^VW^VI11O39]^7- and 20 % hydrolyzed to [P^VW^VI11O39]^7 | stable | [P^VW^VI11O39]^7- (coordinated to different alkali and earth alkali metals leading to different shifts) and [P^VV^VW^VI11O40]^4- (16 %) | 4.3 | 62 | 38 | 8.2 | 88 | 12 | 5.9 | 88 | 41 | 5.3 | 49 µM | triggered the desired increase in fluorescence characteristic for cargo transport | around 1 µM | POM anions with % for parent (active) anion based on signals integration ([1]; D2O): [P^VV^VW^VI11O40]^4-; % of hydrolysis product [P^VW^VI11O39]^7- based on signals integration ([1]; Mes pH 5.5 after 1 day): 1%; POM anions with % for parent (active) anion based on signals integration ([1]; Mes pH 5.5 after 1 day): 99%; % of hydrolysis product [P^VW^VI11O39]^7- based on signals integration ([1]; Mes pH 5.5 after 5 days): 1%; POM anions with % for parent (active) anion based on signals integration ([1]; Mes pH 5.5 after 5 days): 99%; % of hydrolysis product [P^VW^VI11O39]^7- based on signals integration ([1]; Mes pH 5.5 freshly prepared): 1%; POM anions with % for parent (active) anion based on signals integration ([1]; Mes pH 5.5 freshly prepared): 99%; POM anions with % for parent (active) anion based on signals integration ([1]; Nutrient mixture F-12 Ham freshly prepared): [P^VW^VI11O39]^7- (coordinated to different alkali and earth alkali metals leading to different shifts) and [P^VV^VW^VI11O40]^4- (43 %); POM anions with % for parent (active) anion based on signals integration ([1]; Tris-HCl pH 7.5 after 1 day): [P^VW^VI11O39]^7- and [P^VV^VW^VI11O40]^4- (71 %); POM anions with % for parent (active) anion based on signals integration ([1]; Tris-HCl pH 7.5 after 5 days): [P^VW^VI11O39]^7- and [P^VV^VW^VI11O40]^4- (68 %); POM anions with % for parent (active) anion based on signals integration ([1]; Tris-HCl pH 7.5 freshly prepared): [P^VW^VI11O39]^7- and [P^VV^VW^VI11O40]^4- (81 %); hydrolysis on long time scales at neutral pH ([1]; neutral pH, after 24 h): ca. 20%
2 | K4[α-Si^IVMo^VIW^VI11O40]·24H2O [[SiMoW11]^4-] | 1.7 ± 0.3 10^7 M-1 | stable | stable | [Si^IVMo^VIW^VI11O40]^4- | 4.4 | 54 | 22 | 8.6 | 94 | 13 | 6.0 | 72 | 19 | 5.7 | 16.5 µM and 17 µM | triggered the desired increase in fluorescence characteristic for cargo transport | around 1 µM | POM anions with % for parent (active) anion based on signals integration ([1]; Mes pH 5.5 (time not given)): [Si^IVMo^VIW^VI11O40]^4-; POM anions with % for parent (active) anion based on signals integration ([1]; Tris-HCl pH 7.5 (time not given)): [Si^IVMo^VIW^VI11O40]^4-; PolyArg E (activation efficiency) [2, 12]: 9.7; PolyArg Ymax [2, 12]: 86%; EC50 ([2]; EYPC vesicles, 0.1 µM polyArg, acidic pH 5.5, read-out: PolyArg EC50): 5 µM; Protamine E (activation efficiency) [2, 13]: 7.3; Protamine Ymax [2, 13]: 80%; EC50 ([2]; EYPC vesicles, 1 µM Protamine, acidic pH 5.5, read-out: Protamine EC50): 14 µM; HeptaArg E (activation efficiency) ([2]; EYPC vesicles, 10 µM heptaArg, acidic pH 5.5): 6.6; HeptaArg Ymax ([2]; EYPC vesicles, 10 µM heptaArg, acidic pH 5.5 (10 mM Mes, 107 mM NaCl)): 66%; HeptaArg Ymax ([2]; EYPC vesicles, 10 µM heptaArg, neutral pH 7.4): 66%
